Data on 21 compounds can be found in patent publication US20250236608A1, “EGFR INHIBITORS” (Blueprint Medicines Corporation, priority 2022, published 2025).

Molecules are shown by their SMILES. pIC50: −log10 of the molar value.

One experiment addresses EGFR L858R (Homo sapiens (Human), UniProt P00533, L858R). Briefly: Biochemical EGFR inhibition assay, EGFR L858R. As to conditions: Caliper mobility shift; 1.0 mM ATP or ATP Km; read-out: Enz EGFR_L858R IC50.
Another experiment concerns the target EGFR (d746-750) (Homo sapiens (Human), UniProt P00533, DEL746-750). Briefly: Biochemical EGFR inhibition assay, EGFR (d746-750). As to conditions: Caliper mobility shift; 1.0 mM ATP or ATP Km; read-out: Enz EGFR_Exon19-del746-750 IC50.
For experiment [1], the target named is pEGFR (Tyr1068) in PC-9 cells (Ex19Del) (Homo sapiens (Human), UniProt P00533, DEL746-750). Put plainly: PC-9 pEGFR AlphaLISA assay. The experiment is classed as cell-based. As to conditions: 4 hours incubation, p-EGFR (Tyr1068) AlphaLISA, read-out: Ext pEGFR_PC-9 Ex19Del IC50. The essentials:
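First, cells settled overnight in 10% FBS medium. Second, a 10-point, 4-fold series of test agents was applied for 4 h at 37° C. Third, lysates were probed with AlphaLISA acceptor and donor beads, incubated overnight in the dark. Last, IC50 was taken from the dose-response.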

Sequence of pEGFR (Tyr1068) in PC-9 cells (Ex19Del) (P00533 other isoform, or with tags, fused parts or gaps del 746-750): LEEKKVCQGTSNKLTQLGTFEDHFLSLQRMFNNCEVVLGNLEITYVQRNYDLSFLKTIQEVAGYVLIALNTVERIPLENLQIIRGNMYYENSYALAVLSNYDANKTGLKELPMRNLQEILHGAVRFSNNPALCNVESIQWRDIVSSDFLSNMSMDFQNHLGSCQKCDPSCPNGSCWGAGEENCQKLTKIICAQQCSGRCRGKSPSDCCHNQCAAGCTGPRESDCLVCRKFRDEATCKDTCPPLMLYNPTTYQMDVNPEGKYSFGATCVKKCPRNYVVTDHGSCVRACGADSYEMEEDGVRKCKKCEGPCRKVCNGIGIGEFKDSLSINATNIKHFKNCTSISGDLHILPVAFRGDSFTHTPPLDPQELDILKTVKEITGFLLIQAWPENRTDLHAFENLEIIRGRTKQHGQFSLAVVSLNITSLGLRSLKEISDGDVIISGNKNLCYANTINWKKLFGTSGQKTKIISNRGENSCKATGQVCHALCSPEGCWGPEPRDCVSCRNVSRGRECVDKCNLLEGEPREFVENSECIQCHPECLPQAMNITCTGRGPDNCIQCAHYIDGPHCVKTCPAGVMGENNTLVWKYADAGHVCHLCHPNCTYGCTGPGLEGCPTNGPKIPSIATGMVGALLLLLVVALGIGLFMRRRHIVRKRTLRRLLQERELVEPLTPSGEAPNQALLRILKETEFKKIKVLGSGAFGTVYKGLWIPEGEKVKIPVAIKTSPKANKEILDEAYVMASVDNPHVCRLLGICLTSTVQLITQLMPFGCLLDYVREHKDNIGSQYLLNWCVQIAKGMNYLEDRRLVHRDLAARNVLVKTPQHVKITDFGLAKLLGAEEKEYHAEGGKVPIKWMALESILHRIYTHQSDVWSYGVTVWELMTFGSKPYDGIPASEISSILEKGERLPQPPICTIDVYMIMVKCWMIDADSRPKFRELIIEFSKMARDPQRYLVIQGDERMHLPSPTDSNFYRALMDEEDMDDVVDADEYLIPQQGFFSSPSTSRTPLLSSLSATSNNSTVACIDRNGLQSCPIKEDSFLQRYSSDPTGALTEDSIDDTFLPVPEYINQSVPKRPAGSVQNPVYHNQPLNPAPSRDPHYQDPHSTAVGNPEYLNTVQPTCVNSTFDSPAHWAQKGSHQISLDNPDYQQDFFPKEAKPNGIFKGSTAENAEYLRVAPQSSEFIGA
Sequence of EGFR (d746-750) (P00533 other isoform, or with tags, fused parts or gaps del 1-694/del 746-750 limits assumed): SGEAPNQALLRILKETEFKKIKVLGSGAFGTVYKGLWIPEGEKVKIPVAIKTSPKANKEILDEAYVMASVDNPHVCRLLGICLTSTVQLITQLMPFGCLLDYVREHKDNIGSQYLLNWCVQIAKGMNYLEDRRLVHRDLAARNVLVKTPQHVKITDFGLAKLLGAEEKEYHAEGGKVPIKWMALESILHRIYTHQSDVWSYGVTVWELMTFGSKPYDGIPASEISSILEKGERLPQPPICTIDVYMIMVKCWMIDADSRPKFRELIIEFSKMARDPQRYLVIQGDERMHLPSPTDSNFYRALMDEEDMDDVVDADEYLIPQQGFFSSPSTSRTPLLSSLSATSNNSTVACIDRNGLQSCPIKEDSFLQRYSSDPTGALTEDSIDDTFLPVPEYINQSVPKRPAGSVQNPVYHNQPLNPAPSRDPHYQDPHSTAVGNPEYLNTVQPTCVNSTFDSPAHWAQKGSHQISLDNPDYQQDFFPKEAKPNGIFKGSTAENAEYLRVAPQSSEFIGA
Sequence of EGFR L858R (P00533 25-1210 L858R): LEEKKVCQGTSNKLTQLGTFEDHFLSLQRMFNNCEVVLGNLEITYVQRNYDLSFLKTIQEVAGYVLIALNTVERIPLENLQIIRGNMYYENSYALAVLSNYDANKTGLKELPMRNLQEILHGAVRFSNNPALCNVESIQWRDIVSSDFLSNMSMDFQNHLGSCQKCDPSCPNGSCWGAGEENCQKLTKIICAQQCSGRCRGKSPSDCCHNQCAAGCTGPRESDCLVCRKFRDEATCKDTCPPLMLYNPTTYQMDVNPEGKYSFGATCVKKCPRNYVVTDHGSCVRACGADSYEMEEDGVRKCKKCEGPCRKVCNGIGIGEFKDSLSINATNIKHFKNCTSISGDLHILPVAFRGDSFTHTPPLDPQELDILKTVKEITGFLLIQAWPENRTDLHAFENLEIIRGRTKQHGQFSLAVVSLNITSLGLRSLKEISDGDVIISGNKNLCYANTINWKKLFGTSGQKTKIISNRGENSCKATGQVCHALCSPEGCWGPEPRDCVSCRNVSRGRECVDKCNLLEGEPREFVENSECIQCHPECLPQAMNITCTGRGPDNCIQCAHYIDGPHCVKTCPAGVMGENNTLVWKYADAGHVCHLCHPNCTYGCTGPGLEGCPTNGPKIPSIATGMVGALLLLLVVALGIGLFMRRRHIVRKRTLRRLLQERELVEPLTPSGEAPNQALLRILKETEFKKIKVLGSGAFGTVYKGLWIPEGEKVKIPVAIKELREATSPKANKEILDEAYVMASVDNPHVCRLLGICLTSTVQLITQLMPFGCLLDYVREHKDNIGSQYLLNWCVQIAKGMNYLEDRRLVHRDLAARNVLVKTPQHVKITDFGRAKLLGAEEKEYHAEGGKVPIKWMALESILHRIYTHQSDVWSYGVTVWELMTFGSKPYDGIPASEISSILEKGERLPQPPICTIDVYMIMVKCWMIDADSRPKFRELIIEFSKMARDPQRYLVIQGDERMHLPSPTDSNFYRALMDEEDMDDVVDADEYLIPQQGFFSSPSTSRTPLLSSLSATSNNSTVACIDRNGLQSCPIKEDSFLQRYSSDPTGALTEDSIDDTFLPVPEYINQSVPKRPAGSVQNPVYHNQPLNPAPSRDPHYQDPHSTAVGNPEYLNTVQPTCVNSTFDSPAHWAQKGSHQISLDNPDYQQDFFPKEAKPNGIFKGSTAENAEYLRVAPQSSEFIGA

What is called pIC50 is the negative decadic logarithm of the IC50, by convention in mol/L. Regarding `CCOc1cc2ncnc(-c3cn(C)nc3-c3ccccc3)c2cc1NC(=O)c1cnn(CC)c1` [Example 298, N-(7-ethoxy-4-(1-methyl-3-phenyl-1H-pyrazol-4-yl)quinazolin-6-yl)-1-ethyl-1H-pyrazole-4-carboxamide], the negative-log IC50 (pIC50) at EGFR L858R is 8.80; on EGFR (d746-750), 9.05; in experiment [1] it was 9.00.

As for `COc1cc2ncnc(-c3cn(C)nc3-c3ccccc3)c2cc1OC(=O)N1CCOC[C@H]1C` [Example 61, 7-methoxy-4-(1-methyl-3-phenyl-1H-pyrazol-4-yl)quinazolin-6-yl (R)-3-methylmorpholine-4-carboxylate], the pIC50 at EGFR L858R was 8.35; at EGFR (d746-750) it was 8.64; in experiment [1] it was 8.10.

Regarding `CCOc1cc2ncnc(-c3cn(C)nc3-c3ccccc3)c2cc1[C@@H](C)O` (single isomer, unassigned) [Example 104, (R)-1-(7-ethoxy-4-(1-methyl-3-phenyl-1H-pyrazol-4-yl)quinazolin-6-yl)ethan-1-ol or (S)-1-(7-ethoxy-4-(1-methyl-3-phenyl-1H-pyrazol-4-yl)quinazolin-6-yl)ethan-1-ol], the pIC50 is 8.68 on EGFR L858R, 8.89 at EGFR (d746-750) and 8.28 in experiment [1].

Turning to `COc1cc2ncnc(-c3cn(CC(F)F)nc3-c3ccccc3)c2cc1NC(=O)[C@@]12COC[C@@H]1C2` [Example 276, (1R,5R)—N-(4-(1-(2,2-difluoroethyl)-3-phenyl-1H-pyrazol-4-yl)-7-methoxyquinazolin-6-yl)-3-oxabicyclo[3.1.0]hexane-1-carboxamide], the pIC50 at EGFR L858R is 8.70; at EGFR (d746-750), 8.80; in experiment [1], 8.89.

As for `COc1cc2ncnc(-c3cn(C)nc3-c3ccccc3)c2cc1NC(=O)c1cccc(C)n1` [Example 329, N-(7-methoxy-4-(1-methyl-3-phenyl-1H-pyrazol-4-yl)quinazolin-6-yl)-6-methylpicolinamide], the values for the negative-log IC50 (pIC50) (at EGFR L858R; at EGFR (d746-750); in experiment [1]) were 8.85, 9.05 and 8.89, respectively.

As to `COc1cc2ncnc(-c3cn(C)nc3-c3ccccc3)c2nc1NC(=O)C1(C(F)(F)F)CC1` [Example 361, N-(7-methoxy-4-(1-methyl-3-phenyl-1H-pyrazol-4-yl)pyrido[3,2-d]pyrimidin-6-yl)-1-(trifluoromethyl)cyclopropane-1-carboxamide], the pIC50 was 8.80 on EGFR L858R, 9.05 at EGFR (d746-750) and 8.92 in experiment [1].

Turning to `COc1cc2ncnc(-c3cn(CC(F)F)nc3-c3ccccc3)c2cc1NC(=O)C(F)F` [Example 269, N-(4-(1-(2,2-difluoroethyl)-3-phenyl-1H-pyrazol-4-yl)-7-methoxyquinazolin-6-yl)-2,2-difluoroacetamide], the pIC50 at EGFR L858R was 8.89; at EGFR (d746-750) it was 9.05; in experiment [1], 9.05.

As to `COc1cc2ncnc(-c3cn(C)nc3-c3ccccc3)c2nc1O[C@@H](C)c1ncsc1C` (single isomer, unassigned) [Example 54, (S)-4-(1-((7-methoxy-4-(1-methyl-3-phenyl-1H-pyrazol-4-yl)pyrido[3,2-d]pyrimidin-6-yl)oxy)ethyl)-5-methylthiazole or (R)-4-(1-((7-methoxy-4-(1-methyl-3-phenyl-1H-pyrazol-4-yl)pyrido[3,2-d]pyrimidin-6-yl)oxy)ethyl)-5-methylthiazole], the negative-log IC50 (pIC50) on EGFR L858R was 7.97; at EGFR (d746-750), 9.00; in experiment [1], 8.80.

Consider `COc1cc2ncnc(-c3cn(C)nc3-c3ccccc3)c2nc1OC(=O)N1CCN(C)C[C@@H]1C` [Example 55, 7-methoxy-4-(1-methyl-3-phenyl-1H-pyrazol-4-yl)pyrido[3,2-d]pyrimidin-6-yl (S)-2,4-dimethylpiperazine-1-carboxylate], for which the pIC50 is 8.30 on EGFR L858R, 8.70 at EGFR (d746-750) and 8.44 in experiment [1].

Turning to `CCOc1cc2ncnc(-c3cn(C)nc3-c3ccc(F)cc3)c2nc1NC(=O)[C@@]12COC[C@@H]1C2` (single isomer, unassigned) [Example 385, (1R,5R)—N-(7-ethoxy-4-(3-(4-fluorophenyl)-1-methyl-1H-pyrazol-4-yl)pyrido[3,2-d]pyrimidin-6-yl)-3-oxabicyclo[3.1.0]hexane-1-carboxamide or (1S,5S)—N-(7-ethoxy-4-(3-(4-fluorophenyl)-1-methyl-1H-pyrazol-4-yl)pyrido[3,2-d]pyrimidin-6-yl)-3-oxabicyclo[3.1.0]hexane-1-carboxamide], the pIC50 was 8.77 at EGFR L858R, 9.40 at EGFR (d746-750) and 9.15 in experiment [1].

For `COc1cc2ncnc(-c3cn(C)nc3-c3ccccc3)c2nc1O[C@H](C)c1cocn1` [Example 40, (R)-4-(1-((7-methoxy-4-(1-methyl-3-phenyl-1H-pyrazol-4-yl)pyrido[3,2-d]pyrimidin-6-yl)oxy)ethyl) oxazole], the negative-log IC50 (pIC50) was 8.38 at EGFR L858R, 8.54 on EGFR (d746-750) and 8.82 in experiment [1].

With `COc1cc2ncnc(-c3cn(C)nc3-c3c(F)cccc3F)c2cc1NC(=O)[C@]12C[C@H]1CN(C)C2` [Example 293, (1R,5R)—N-(4-(3-(2,6-difluorophenyl)-1-methyl-1H-pyrazol-4-yl)-7-methoxyquinazolin-6-yl)-3-methyl-3-azabicyclo[3.1.0]hexane-1-carboxamide], the negative-log IC50 (pIC50) was 6.56 at EGFR L858R, 8.47 at EGFR (d746-750) and 8.05 in experiment [1].

Consider `COc1cc2ncnc(-c3c[nH]nc3-c3ccccc3)c2cc1[C@H]1CCCCO1` (single isomer, unassigned) [Example 133, (R)-7-methoxy-4-(3-phenyl-1H-pyrazol-4-yl)-6-(tetrahydro-2H-pyran-2-yl)quinazoline or (S)-7-methoxy-4-(3-phenyl-1H-pyrazol-4-yl)-6-(tetrahydro-2H-pyran-2-yl)quinazoline], for which the results for the negative-log IC50 (pIC50) (at EGFR L858R; on EGFR (d746-750); in experiment [1]) were 8.96, 9.30 and 8.62, respectively.

For the compound `Cn1cc(-c2ncnc3cc(OC(F)F)c(NC(=O)C4(C(F)(F)F)CC4)nc23)c(-c2ccccc2)n1` [Example 465, N-(7-(difluoromethoxy)-4-(1-methyl-3-phenyl-1H-pyrazol-4-yl)pyrido[3,2-d]pyrimidin-6-yl)-1-(trifluoromethyl)cyclopropane-1-carboxamide], the pIC50 was 8.31 at EGFR L858R, 9.10 on EGFR (d746-750) and 8.46 in experiment [1].

Take `COc1cc2ncnc(-c3cn(C)nc3-c3ccccc3)c2nc1O[C@@H](C)c1csc(C)n1` [Example 33, (S)-4-(1-((7-methoxy-4-(1-methyl-3-phenyl-1H-pyrazol-4-yl)pyrido[3,2-d]pyrimidin-6-yl)oxy)ethyl)-2-methylthiazole]: the negative-log IC50 (pIC50) was 8.96 at EGFR L858R, 9.15 on EGFR (d746-750) and 9.10 in experiment [1].

Turning to `COc1cc2ncnc(-c3cn(C)nc3-c3ccccc3F)c2cc1NC(=O)[C@]12COC[C@H]1C2` (single isomer, unassigned) [Example 241, (1S,5S)—N-(4-(3-(2-fluorophenyl)-1-methyl-1H-pyrazol-4-yl)-7-methoxyquinazolin-6-yl)-3-oxabicyclo[3.1.0]hexane-1-carboxamide or (1R,5R)—N-(4-(3-(2-fluorophenyl)-1-methyl-1H-pyrazol-4-yl)-7-methoxyquinazolin-6-yl)-3-oxabicyclo[3.1.0]hexane-1-carboxamide], the values for the pIC50 (at EGFR L858R; at EGFR (d746-750); in experiment [1]) were 8.52, 8.82 and 8.70, respectively.

As for `CCn1cc(C(=O)Nc2cc3c(-c4cn(C)nc4-c4ccccc4)ncnc3cc2OC)cn1` [Example 219, 1-ethyl-N-(7-methoxy-4-(1-methyl-3-phenyl-1H-pyrazol-4-yl)quinazolin-6-yl)-1H-pyrazole-4-carboxamide], the pIC50 on EGFR L858R is 8.72; at EGFR (d746-750), 8.96; in experiment [1], 8.77.

On to `COC(=O)Nc1cc2c(-c3cn(C)nc3-c3ccccc3)ncnc2cc1OC` [Example 157, methyl (7-methoxy-4-(1-methyl-3-phenyl-1H-pyrazol-4-yl)quinazolin-6-yl)carbamate], for which the figures for the pIC50 (on EGFR L858R; at EGFR (d746-750); in experiment [1]) were 9.00, 9.22 and 9.00, respectively.

`COc1cc2ncnc(-c3cn(CC(F)F)nc3-c3ccccc3)c2cc1NC(=O)c1ccns1` [Example 272, N-(4-(1-(2,2-difluoroethyl)-3-phenyl-1H-pyrazol-4-yl)-7-methoxyquinazolin-6-yl)isothiazole-5-carboxamide]: the negative logarithm of the IC50 (pIC50) at EGFR L858R is 8.92; on EGFR (d746-750), 9.00; in experiment [1], 9.30.

Take `CCOc1cc2ncnc(-c3cn(C4CC4)nc3-c3ccccc3)c2cc1[C@H](C)O` (single isomer, unassigned) [Example 112, (S)-1-(4-(1-cyclopropyl-3-phenyl-1H-pyrazol-4-yl)-7-ethoxyquinazolin-6-yl)ethan-1-ol or (R)-1-(4-(1-cyclopropyl-3-phenyl-1H-pyrazol-4-yl)-7-ethoxyquinazolin-6-yl)ethan-1-ol]: the pIC50 is 8.72 on EGFR L858R, 8.92 at EGFR (d746-750) and 8.42 in experiment [1].

As for `COc1cc2ncnc(-c3cn(CC(F)F)nc3-c3ccccc3)c2cc1OC` [Example 15, 4-(1-(2,2-difluoroethyl)-3-phenyl-1H-pyrazol-4-yl)-6,7-dimethoxyquinazoline], the pIC50 is 8.82 at EGFR L858R, 9.10 at EGFR (d746-750) and 8.82 in experiment [1].
